Laboratory results from PubChem BioAssay AID248 (DTP/NCI, 2004).
Values joined by “and” are separate entries in the source; they are usually repeats but may differ in a detail not shown here. Equal entries are not always repeated. Toxic doses and inconclusive results are not listed. Rule as the data show it: active = T/C of 150% or more; inactive = T/C below 125%.

Test system: L1210 leukemia ip in BDF1 mice, survival T/C
Assay: NCI In Vivo Anticancer Drug Screen. Data for tumor model L1210 Leukemia (intraperitoneal) in B6D2F1 (BDF1) mice
Conditions: endpoint: mean survival time, higher = longer survival
In short: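 Transplanted-tumor mice were given test agent; controls received vehicle only. Survival readings from the two groups were divided (treated over control).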

[1] = dose: 100.0 mg/kg/injection, schedule: Q01DX001 (ip), vehicle: Klucel (hydroxypropylcellulose) (HPC)
[2] = dose: 100.0 mg/kg/injection, schedule: Q01DX009 (ip), vehicle: Klucel (hydroxypropylcellulose) (HPC)
[3] = dose: 100.0 mg/kg/injection, schedule: Q04DX003 (ip), vehicle: Klucel (hydroxypropylcellulose) (HPC)
[4] = dose: 200.0 mg/kg/injection, schedule: Q01DX001 (ip), vehicle: Klucel (hydroxypropylcellulose) (HPC)
[5] = dose: 200.0 mg/kg/injection, schedule: Q01DX009 (ip), vehicle: Klucel (hydroxypropylcellulose) (HPC)
[6] = dose: 200.0 mg/kg/injection, schedule: Q04DX003 (ip), vehicle: Klucel (hydroxypropylcellulose) (HPC)
[7] = dose: 400.0 mg/kg/injection, schedule: Q01DX001 (ip), vehicle: Klucel (hydroxypropylcellulose) (HPC)
[8] = dose: 400.0 mg/kg/injection, schedule: Q01DX009 (ip), vehicle: Klucel (hydroxypropylcellulose) (HPC)
[9] = dose: 400.0 mg/kg/injection, schedule: Q04DX003 (ip), vehicle: Klucel (hydroxypropylcellulose) (HPC)
[10] = dose: 100.0 mg/kg/injection, schedule: Q01DX009 (ip), vehicle: saline
[11] = dose: 100.0 mg/kg/injection, schedule: Q04DX003 (ip), vehicle: saline
[12] = dose: 200.0 mg/kg/injection, schedule: Q01DX009 (ip), vehicle: saline
[13] = dose: 200.0 mg/kg/injection, schedule: Q04DX003 (ip), vehicle: saline
[14] = dose: 400.0 mg/kg/injection, schedule: Q01DX009 (ip), vehicle: saline
[15] = dose: 400.0 mg/kg/injection, schedule: Q04DX003 (ip), vehicle: saline
[16] = dose: 100.0 mg/kg/injection, schedule: Q04DX003 (ip), vehicle: saline with Tween-80
[17] = dose: 200.0 mg/kg/injection, schedule: Q04DX003 (ip), vehicle: saline with Tween-80
[18] = dose: 400.0 mg/kg/injection, schedule: Q04DX003 (ip), vehicle: saline with Tween-80
[19] = dose: 100.0 mg/kg/injection, schedule: Q01DX001 (ip), vehicle: saline with Tween-80
[20] = dose: 200.0 mg/kg/injection, schedule: Q01DX001 (ip), vehicle: saline with Tween-80
[21] = dose: 400.0 mg/kg/injection, schedule: Q01DX001 (ip), vehicle: saline with Tween-80
[22] = dose: 100.0 mg/kg/injection, schedule: Q01DX001 (ip), vehicle: carboxymethylcellulose (CMC)
[23] = dose: 200.0 mg/kg/injection, schedule: Q01DX001 (ip), vehicle: carboxymethylcellulose (CMC)
[24] = dose: 400.0 mg/kg/injection, schedule: Q01DX001 (ip), vehicle: carboxymethylcellulose (CMC)
[25] = dose: 75.0 mg/kg/injection, schedule: Q01DX001 (ip), vehicle: carboxymethylcellulose (CMC)
[26] = dose: 150.0 mg/kg/injection, schedule: Q01DX001 (ip), vehicle: carboxymethylcellulose (CMC)

Measured: T/C

CC1C(=O)CC2C3(C)CCC2(C(C)C(=O)O)C(=O)C13 (centres undefined)
inactive: [1] 100 % of control | [2] 104 % of control | [3] 109 % of control | [4] 107 % of control | [5] 100 % of control | [6] 106 % of control | [7] 107 % of control | [8] 98 % of control | [9] 104 % of control

O=C(Cn1cc(F)c(=O)[nH]c1=O)c1cccs1
inactive: [10] 89 % of control | [11] 100 % of control | [12] 89 % of control | [13] 106 % of control | [14] 89 % of control | [15] 111 % of control

CCN1CCC2C[N+](C)([O-])CCN2C1=O (centres undefined)
inactive: [16] 93 % of control | [17] 95 % of control | [18] 98 % of control

Nc1nc(-c2ccc([N+](=O)[O-])cc2)cc(=O)[nH]1
inactive: [19] 98 % of control | [20] 93 % of control | [21] 92 % of control

CN(C)c1ccc(Cc2ccc(N(C)C)cc2[N+](=O)[O-])cc1
inactive: [2] 102 % of control | [3] 96 % of control | [5] 93 % of control | [6] 96 % of control | [8] 95 % of control | [9] 101 % of control

Cc1ccc(C(=O)OCC2OC(Cl)CC2OC(=O)c2ccc(C)cc2)cc1 (centres undefined)
inactive: dose: 50.0 mg/kg/injection, schedule: Q04DX003 (ip), vehicle: saline 107 % of control | [11] 102 % of control | [13] 91 % of control | [15] 98 % of control

COC(=O)[C@@H]1[C@H](O)[C@H](C)[C@H](O)[C@H](C)/C=C\C=C(C)C(=O)Nc2c(C)c(OC(C)=O)c3c(c2O)C(=O)C(C)=C2OCOC(=C23)C(C)=C[C@@](C)(O)[C@H](O)[C@@H](C)[C@H]1OC(C)=O
inactive: dose: 100.0 mg/kg/injection, schedule: Q04DX002 (ip), vehicle: Klucel (hydroxypropylcellulose) (HPC) 96 % of control | dose: 200.0 mg/kg/injection, schedule: Q04DX002 (ip), vehicle: Klucel (hydroxypropylcellulose) (HPC) 101 % of control | dose: 400.0 mg/kg/injection, schedule: Q04DX002 (ip), vehicle: Klucel (hydroxypropylcellulose) (HPC) 101 % of control

Cc1ccc(S(=O)(=O)Nc2ccc(Nc3ccccc3)cc2)cc1
inactive: dose: 50.0 mg/kg/injection, schedule: Q01DX009 (ip), vehicle: saline with Tween-80 94 % of control | dose: 100.0 mg/kg/injection, schedule: Q01DX009 (ip), vehicle: saline with Tween-80 94 % of control | dose: 200.0 mg/kg/injection, schedule: Q01DX009 (ip), vehicle: saline with Tween-80 102 % of control

CC(=O)Nc1ccc(OCCOC(=O)Nc2ccc(Cl)c(C(F)(F)F)c2)cc1
inactive: dose: 12.5 mg/kg/injection, schedule: Q01DX009 (ip), vehicle: carboxymethylcellulose (CMC) 95 % of control and 100 % of control | dose: 25.0 mg/kg/injection, schedule: Q01DX009 (ip), vehicle: carboxymethylcellulose (CMC) 95 % of control and 97 % of control | dose: 25.0 mg/kg/injection, schedule: Q04DX002 (ip), vehicle: carboxymethylcellulose (CMC) 92 % of control and 93 % of control | dose: 50.0 mg/kg/injection, schedule: Q04DX002 (ip), vehicle: carboxymethylcellulose (CMC) 95 % of control and 90 % of control | [22] 97 % of control and 101 % of control | dose: 100.0 mg/kg/injection, schedule: Q04DX003 (ip), vehicle: carboxymethylcellulose (CMC) 92 % of control and 101 % of control | [23] 97 % of control and 102 % of control | dose: 200.0 mg/kg/injection, schedule: Q04DX002 (ip), vehicle: carboxymethylcellulose (CMC) 94 % of control | dose: 200.0 mg/kg/injection, schedule: Q04DX003 (ip), vehicle: carboxymethylcellulose (CMC) 92 % of control | [24] 97 % of control and 87 % of control | dose: 400.0 mg/kg/injection, schedule: Q01DX009 (ip), vehicle: carboxymethylcellulose (CMC) 88 % of control and 90 % of control | dose: 400.0 mg/kg/injection, schedule: Q04DX002 (ip), vehicle: carboxymethylcellulose (CMC) 94 % of control and 91 % of control | dose: 400.0 mg/kg/injection, schedule: Q04DX003 (ip), vehicle: carboxymethylcellulose (CMC) 92 % of control and 97 % of control

O=S(=O)(/N=C1C=C/C(=N\S(=O)(=O)c2ccccc2)c2ccccc2\1)c1ccccc1
inactive: [16] 88 % of control | [17] 90 % of control | [18] 93 % of control

CCCCCC=C(c1ccccc1)c1ccccc1
inactive: [19] 92 % of control | [20] 104 % of control | [21] 95 % of control

Nc1nc(N)c2[nH]c(CO)nc2n1
inactive: [25] 110 % of control | [26] 97 % of control | dose: 300.0 mg/kg/injection, schedule: Q01DX001 (ip), vehicle: carboxymethylcellulose (CMC) 105 % of control

c1ccc(-c2csc3n4ccccc4c[n+]23)cc1
inactive: dose: 6.25 mg/kg/injection, schedule: Q04DX002 (ip), vehicle: saline with Tween-80 97 % of control | dose: 12.5 mg/kg/injection, schedule: Q04DX002 (ip), vehicle: saline with Tween-80 100 % of control | dose: 25.0 mg/kg/injection, schedule: Q04DX002 (ip), vehicle: saline with Tween-80 93 % of control

CC(=O)ON(C(C)=O)c1ccc(S(=O)(=O)c2ccc(N(OC(C)=O)C(C)=O)cc2)cc1
inactive: [11] 97 % of control | [13] 103 % of control | [15] 103 % of control

CCN1C(=O)/C(=C\c2ccccc2)N=C1C
inactive: dose: 12.5 mg/kg/injection, schedule: Q01DX009 (ip), vehicle: DMSO 92 % of control | dose: 25.0 mg/kg/injection, schedule: Q01DX009 (ip), vehicle: DMSO 94 % of control | dose: 50.0 mg/kg/injection, schedule: Q01DX009 (ip), vehicle: DMSO 96 % of control

O=C(CSc1cc(-c2ccc(Cl)cc2)s[s+]1)c1ccc(Cl)cc1
inactive: [11] 102 % of control | [13] 98 % of control | [15] 98 % of control

CC1(C)CCO/C(=C\C(=O)N2Cc3cc4ccccc4nc3C2)N1
inactive: [1] 88 % of control | [4] 86 % of control | [7] 90 % of control

[CH3][Sn]1([CH3])[c]2ccccc2Oc2cccc[c]21
inactive: dose: 100.0 mg/kg/injection, schedule: Q01DX001 (ip), vehicle: other 92 % of control | dose: 200.0 mg/kg/injection, schedule: Q01DX001 (ip), vehicle: other 97 % of control | dose: 400.0 mg/kg/injection, schedule: Q01DX001 (ip), vehicle: other 87 % of control

Nc1nc(C(=O)O)cc(=O)[nH]1
inactive: [22] 103 % of control | [23] 113 % of control | [24] 96 % of control

O=C(O)/C=C/C(=O)Nc1ccc(NC(=O)/C=C/C(=O)O)cc1
inactive: [16] 98 % of control | [17] 95 % of control | [18] 96 % of control

COC(=O)C(COS(=O)(=O)c1ccccc1)NC(=O)OCc1ccccc1 (centres undefined)
inactive: [10] 100 % of control | [11] 92 % of control | [12] 98 % of control | [13] 97 % of control | [14] 96 % of control | [15] 95 % of control

CN(C)CCC1(c2ccccc2)C=Cc2ccccc21 (centres undefined)
inactive: dose: 3.12 mg/kg/injection, schedule: Q01DX009 (ip), vehicle: saline 93 % of control | dose: 6.25 mg/kg/injection, schedule: Q01DX009 (ip), vehicle: saline 97 % of control | dose: 12.5 mg/kg/injection, schedule: Q01DX009 (ip), vehicle: saline 101 % of control | dose: 25.0 mg/kg/injection, schedule: Q01DX009 (ip), vehicle: saline 100 % of control | dose: 50.0 mg/kg/injection, schedule: Q01DX009 (ip), vehicle: saline 95 % of control

CCOC(=O)C1C2OC(=O)C(C(=O)C2C(C2CC=CCC2)N(CCCl)CCCl)C1c1ccc(OC(C)=O)cc1 (centres undefined)
inactive: [3] 101 % of control | [6] 97 % of control | [9] 98 % of control

CC(C)CC1NC(=O)C(C(C)C)NC(=O)CC(C)COC(=O)C(CC(C)C)N(C)C(=O)C(C(C)C)NC(=O)C(C(C)C)OC1=O (centres undefined)
inactive: [25] 96 % of control | [26] 96 % of control
